Reference: PubChem BioAssay AID248 (DTP/NCI, 2004)
Where “and” joins values, the source holds several entries; their conditions need not be identical. Identical values can stand only once. Toxic doses and inconclusive results are not listed. Rule as the data show it: active = T/C of 150% or more; inactive = T/C below 125%.

System: L1210 leukemia ip in BDF1 mice, survival T/C
Assay: NCI In Vivo Anticancer Drug Screen. Data for tumor model L1210 Leukemia (intraperitoneal) in B6D2F1 (BDF1) mice
Details: endpoint: mean survival time, higher = longer survival
Summary of the method: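 Mice bearing the transplanted tumor received compound or vehicle. Survival of the treated group was divided by that of the vehicle-treated control group to give the ratio.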

[1] = dose: 100.0 mg/kg/injection, schedule: Q04DX003 (ip), vehicle: saline with Tween-80
[2] = dose: 200.0 mg/kg/injection, schedule: Q04DX003 (ip), vehicle: saline with Tween-80
[3] = dose: 400.0 mg/kg/injection, schedule: Q04DX003 (ip), vehicle: saline with Tween-80
[4] = dose: 100.0 mg/kg/injection, schedule: Q01DX009 (ip), vehicle: saline
[5] = dose: 200.0 mg/kg/injection, schedule: Q01DX009 (ip), vehicle: saline
[6] = dose: 400.0 mg/kg/injection, schedule: Q01DX009 (ip), vehicle: saline
[7] = dose: 100.0 mg/kg/injection, schedule: Q04DX003 (ip), vehicle: saline
[8] = dose: 200.0 mg/kg/injection, schedule: Q04DX003 (ip), vehicle: saline
[9] = dose: 50.0 mg/kg/injection, schedule: Q01DX001 (ip), vehicle: saline
[10] = dose: 100.0 mg/kg/injection, schedule: Q01DX001 (ip), vehicle: saline
[11] = dose: 100.0 mg/kg/injection, schedule: Q04DX002 (ip), vehicle: Klucel (hydroxypropylcellulose) (HPC)
[12] = dose: 100.0 mg/kg/injection, schedule: Q04DX002 (ip), vehicle: saline with Tween-80
[13] = dose: 200.0 mg/kg/injection, schedule: Q04DX002 (ip), vehicle: Klucel (hydroxypropylcellulose) (HPC)
[14] = dose: 200.0 mg/kg/injection, schedule: Q04DX002 (ip), vehicle: saline with Tween-80
[15] = dose: 400.0 mg/kg/injection, schedule: Q04DX002 (ip), vehicle: Klucel (hydroxypropylcellulose) (HPC)
[16] = dose: 400.0 mg/kg/injection, schedule: Q04DX002 (ip), vehicle: saline with Tween-80

Measured: T/C

CN(C)c1ccc(/C=C/c2cc[n+](C)cc2)cc1
inactive: dose: 8.0 mg/kg/injection, schedule: Q04DX003 (ip), vehicle: saline with Tween-80 100 % of control | dose: 16.0 mg/kg/injection, schedule: Q04DX003 (ip), vehicle: saline with Tween-80 95 % of control

S=C(NCc1ccccc1)Nc1ccccc1
inactive: [1] 96 % of control | [2] 94 % of control

COC(=O)/C=C/c1ccc([N+](=O)[O-])cc1
inactive: [1] 94 % of control and 96 % of control | [2] 96 % of control and 97 % of control | [3] 92 % of control

O=C1C2C(Cl)C(Cl)C(Cl)C(Cl)C2C(=O)N1NC1CCC([N+](=O)[O-])CC1[N+](=O)[O-] (stereo not drawn)
inactive: [4] 91 % of control | dose: 100.0 mg/kg/injection, schedule: Q04DX002 (ip), vehicle: saline 92 % of control | [5] 94 % of control | dose: 200.0 mg/kg/injection, schedule: Q04DX002 (ip), vehicle: saline 106 % of control | [6] 98 % of control | dose: 400.0 mg/kg/injection, schedule: Q04DX002 (ip), vehicle: saline 95 % of control

Nc1cc(S(=O)(=O)O)cc2ccc(S(=O)(=O)O)cc12
inactive: [4] 102 % of control | [7] 111 % of control | [5] 96 % of control | [8] 101 % of control | [6] 102 % of control | dose: 400.0 mg/kg/injection, schedule: Q04DX003 (ip), vehicle: saline 93 % of control

Cc1ccc(NC(=O)CS)cc1
inactive: [1] 100 % of control | [2] 93 % of control

CCc1ccc(N2C(N)=NC(N)=NC2(C)C)cc1
inactive: dose: 25.0 mg/kg/injection, schedule: Q01DX001 (ip), vehicle: saline 104 % of control | [9] 100 % of control | [10] 105 % of control and 110 % of control

CCOC(=O)Cc1cc(=O)c2ccccc2[nH]1
inactive: dose: 100.0 mg/kg/injection, schedule: Q04DX003 (ip), vehicle: acetone 96 % of control | dose: 200.0 mg/kg/injection, schedule: Q04DX003 (ip), vehicle: acetone 97 % of control | dose: 400.0 mg/kg/injection, schedule: Q04DX003 (ip), vehicle: acetone 103 % of control

CN(C)c1ccc(C(=C2C=CC(=[N+](C)C)C=C2)c2ccccc2Cl)cc1
inactive: [9] 92 % of control | [10] 92 % of control

CC1CCN(C(=O)Nc2ccc(Cl)cc2[N+](=O)[O-])CC1
inactive: dose: 100.0 mg/kg/injection, schedule: Q01DX009 (ip), vehicle: Klucel (hydroxypropylcellulose) (HPC) 92 % of control | dose: 200.0 mg/kg/injection, schedule: Q01DX009 (ip), vehicle: Klucel (hydroxypropylcellulose) (HPC) 97 % of control | dose: 400.0 mg/kg/injection, schedule: Q01DX009 (ip), vehicle: Klucel (hydroxypropylcellulose) (HPC) 91 % of control

Cc1cc(Cl)ccc1OC(=O)Nc1ccccc1Cl
inactive: dose: 100.0 mg/kg/injection, schedule: Q01DX001 (ip), vehicle: saline with Tween-80 97 % of control | dose: 100.0 mg/kg/injection, schedule: Q01DX009 (ip), vehicle: saline with Tween-80 102 % of control and 106 % of control | [11] 103 % of control | [12] 105 % of control and 89 % of control | [1] 96 % of control | dose: 200.0 mg/kg/injection, schedule: Q01DX001 (ip), vehicle: saline with Tween-80 94 % of control | dose: 200.0 mg/kg/injection, schedule: Q01DX009 (ip), vehicle: saline with Tween-80 100 % of control and 88 % of control | [13] 124 % of control | [14] 92 % of control and 100 % of control | [2] 100 % of control | dose: 400.0 mg/kg/injection, schedule: Q01DX001 (ip), vehicle: saline with Tween-80 99 % of control | dose: 400.0 mg/kg/injection, schedule: Q01DX009 (ip), vehicle: saline with Tween-80 102 % of control and 106 % of control | [15] 106 % of control | [16] 92 % of control and 105 % of control | [3] 96 % of control

COC(=O)C(O)(C#CC(C)C)c1ccccc1 (stereo not drawn)
inactive: dose: 100.0 mg/kg/injection, schedule: Q01DX001 (ip), vehicle: other 107 % of control | dose: 200.0 mg/kg/injection, schedule: Q01DX001 (ip), vehicle: other 100 % of control | dose: 400.0 mg/kg/injection, schedule: Q01DX001 (ip), vehicle: other 94 % of control

Nc1nc(N)c(-c2ccc(Cl)cc2)c(CCc2ccc(NC(=O)CBr)cc2)n1
inactive: [9] 116 % of control | [10] 110 % of control

c1ccc2c3c([nH]c2c1)CCC3
inactive: dose: 100.0 mg/kg/injection, schedule: Q01DX001 (ip), vehicle: carboxymethylcellulose (CMC) 93 % of control | dose: 200.0 mg/kg/injection, schedule: Q01DX001 (ip), vehicle: carboxymethylcellulose (CMC) 98 % of control | dose: 400.0 mg/kg/injection, schedule: Q01DX001 (ip), vehicle: carboxymethylcellulose (CMC) 102 % of control

Oc1cccc(Nc2ccccc2)c1
inactive: [11] 106 % of control | [13] 95 % of control | [15] 95 % of control

CC(=O)c1cccc(O)c1
inactive: [12] 98 % of control | [14] 95 % of control | [16] 102 % of control

Cc1ncc(C(N)=O)c2c1OC(C)(C)OC2
inactive: [9] 100 % of control | [10] 97 % of control | dose: 200.0 mg/kg/injection, schedule: Q01DX001 (ip), vehicle: saline 94 % of control | dose: 400.0 mg/kg/injection, schedule: Q01DX001 (ip), vehicle: saline 88 % of control

O=C(O)CCCCCNCc1cc(=O)[nH]c(=O)[nH]1
inactive: [7] 97 % of control | [8] 101 % of control

Cc1ccc(NC(=O)COc2c(C)cc(Cl)cc2Cl)cc1
inactive: [12] 107 % of control | [14] 96 % of control | [16] 93 % of control

CC(=O)OC1CCC2(C)C3=CCC4(C)C(C(C)/C=C\C(C)C(C)C)CCC4C34C=CC2(C1)C1C(=O)OC(=O)C14 (stereo not drawn)
inactive: dose: 25.0 mg/kg/injection, schedule: Q04DX002 (ip), vehicle: saline with Tween-80 98 % of control | dose: 50.0 mg/kg/injection, schedule: Q04DX002 (ip), vehicle: saline with Tween-80 90 % of control | [12] 94 % of control
